Paper PMC8840040, “Pharmacokinetic Characterization of the DDAH1 Inhibitors ZST316 and ZST152 in Mice Using a HPLC-MS/MS Method” (Molecules, 2022)
Values joined by “and” are separate entries in the source; they are usually repeats but may differ in a detail not shown here. Equal values may be shown once. Read-outs that look alike come from different tables or passages of the source.

Tests used:
[1] = Stability in mouse plasma and urine; type: in vitro ADME; conditions: for stability in urine stored frozen: mice urine, −20 °C
Experimental: The extraction recovery, established on QCs at the concentrations of LLOQ (i.e., 5 ng/mL), at 15 and 250 ng/mL, fell in the range 88.9%–94.6% and 87.9%–117.5% for ZST316 and ZST152, respectively. The LLOQ in plasma was 5.0 ng/mL for both compounds, with precision of 7.1% and 4.1% and accuracy of 95.8% and 106.1% (n = 6) for ZST316 and ZST152, respectively (Table 1). We decided to validate this value as LLOQ even though the limit of detection (LOD) reached in the initial set up phase of the methods was established for both compounds at 1 ng/mL (S/N > 4.0). However, such sensitivity was not required as the expected range of activity (IC50) was markedly higher than the LLOQ value for both compounds. The linearity of the method, evaluated over three different analytical runs in the concentration range 5.0–500.0 ng/mL, was acceptable for both analytes, with an average coefficient of determination (R^2) of 0.990 and 0.992 for ZST316 and ZST152, respectively. […] Both ZST316 and ZST152 were stable in frozen plasma for at least one month at −20 °C. No chromatographic carry-over effect was observed injecting a blank sample after the highest standard calibration point. The method was considered suitable for preclinical pharmacokinetic investigations.
Both ZST316 and ZST152 were stable at 37 °C in mice urine for at least 24 h and stored frozen at −20°C for one month. No chromatographic carry-over effect was observed injecting a blank sample after the highest standard calibration point.

[2] = Plasma pharmacokinetics and urinary elimination after single oral and intravenous administration; type: in vivo, FVB mice; conditions: for urinary excretion, range over oral and intravenous route: 24 h urine, p.o. 60 mg/Kg to i.v. 30 mg/Kg; for clearance: read-out: Clp (plasma clearance) (converted); for Vd: read-out: Vd (volume of distribution); for bioavailability: oral, 60 mg/Kg, read-out: F % (bioavailability); for time up to which detectable in plasma: concentration close to the LLOQ (5 ng/mL)
Experimental: Mice were treated with ZST316 and ZST152 using a dose of 60 mg/Kg (oral gavage) and 30 mg/Kg (intravenous bolus). For pharmacokinetic sampling, blood was collected at 15 and 30 min, and 1, 3, 8, and 24 h post dose. Three mice were analyzed per each time point. After the animals were anesthetized with isoflurane, the blood was drained from the retro-orbital plexus into heparinized tubes, and then centrifuged for 10 min at 4000× g at 4 °C to separate plasma. A 24-h urine fraction was collected in three mice for each drug and route of administration. Plasma and urine samples were stored at −20 °C until analysis by HPLC-MS/MS.
In the preliminary phase of the method set up, we tried different solvents, 2-propanol, methanol (CH3OH), and acetonitrile (CH3CN) at different pH conditions, quickly obtaining a satisfactory recovery with CH3OH: 0.1% formic acid (HCOOH). Briefly, to assay ZST316, 10 µL of IS (ZST152 WS: 500 ng/mL) were added to 100 µL of plasma study samples, standards, or QCs in a polypropylene tube. The sample was then added with 10 µL of ammonium formate (NH4HCO2) 50 mM, mixed by vortex and added with 400 µL CH3OH: 0.1% HCOOH, vortex mixed again for 30 s and centrifuged at 13,200 rpm for 10 min at 4 °C. A volume of 450 µL of the supernatant was transferred to a new polypropylene tube, dried under nitrogen flow, and reconstituted with 100 µL of MP A:B (1:1, v/v). Finally, the mixed samples were centrifuged at 13,200 rpm for 10 min at 4 °C and the supernatant was transferred into glass vials for HPLC-MS/ MS analysis. Plasma samples containing drug concentrations above the highest standard point of the calibration curve were reanalyzed following dilution with the control matrix.
To assay ZST316, 5 µL of IS (ZST152 WS: 100 µg/mL) were added to 50 µL of urine samples, standards, or QCs in a polypropylene tube. After vortex mixing, 490 µL of MP A:B (1:1; v/v) were added to 10 µL of each sample to obtain a final dilution of 1:50. Samples were vortex mixed again for 30 s, centrifuged at 13,200 rpm for 10 min at 4 °C, and, finally, the supernatant was transferred into glass vials for HPLC-MS/ MS analysis. The urine samples with drug concentrations above the highest standard point of the calibration curve were reanalyzed following dilution with control matrix.
[…] chromatography was performed using a series 200 HPLC system (Perkin Elmer, Waltham, MA, USA) under gradient conditions with separation on a HILIC column, 3 µm, 100 A, 2.1 × 150 mm (Waters, Milford, MA, USA), coupled with a 3 µm, 3.9 × 5.0 mm guard column of the same material at the flow rate of 0.2 mL/min. Gradient features: 10% mobile phase (MP) A (NH4HCO2 10 mM, 10% CH3CN, 0.1% HCOOH) and 90% MP B (CH3CN, 0.1% HCOOH) as the initial constant condition; then to 90% MP A in 6 min and the constant condition for 1.5 min. Return to the start condition in 0.5 min and conditioning for 5.5 min. Total run time: 13.5 min. Mass spectrometric detection was performed using an API 4000 triple quadrupole mass spectrometer (SCIEX, Framingham, MA, USA) supplied with a Turbo Ion Spray source set at 350 °C and −4200 V, analyzing biological samples with electrospray ionization (ESI) operating in negative ion mode. Purified air was used as nebulizer gas (Gas 1) and heater gas (Gas 2) and N2 was used as curtain gas and collision activated dissociation gas. They were set to 40, 50, 20, and 4 instrument units (psi), respectively. The declustering potential (DP) was set at −119 V and the collision exit potential (CXP) at –10 V. All parameters of the source were defined by direct infusion of ZST316 and ZST152 1 µg/mL in mobile phase B. The final quantification was carried out in Selected Reaction Monitoring (SRM) with the following transitions: m/z 307.9 → 208.0 (collision energy of −29.5 eV) for ZST316 and m/z 271.9 → 170.9 (collision energy −24.7 eV) for ZST152 (Figure 2 and Figure 3). Data were processed with the software package Analyst 1.6.2 (AB SCIEX). […]

[3] = system: triple-negative breast cancer cells; conditions: cited from earlier work; for suppression of vasculogenic mimicry: in vitro, triple-negative breast cancer cells
cancer cells = conditions: cited from earlier work; for degradation in the culture media: culture media of cancer cell experiments
[4] = FVB, mouse, plasma, iv, 30 mg/kg, i.v. 30 mg/Kg, single bolus
[5] = FVB, mouse, plasma, iv, 30 mg/kg, i.v. 30 mg/Kg, read-out: AUC 0-8h
[6] = FVB, mouse, plasma, iv, 30 mg/kg, i.v. 30 mg/Kg, read-out: AUC 0-last
[7] = FVB, mouse, plasma, iv, 30 mg/kg, i.v. 30 mg/Kg, read-out: Half-life (converted)
[8] = FVB, mouse, plasma, iv, i.v. 30 mg/Kg
[9] = FVB, mouse, plasma, p.o. 60 mg/Kg vs i.v. 30 mg/Kg, dose normalized
[10] = FVB, mouse, plasma, po, 60 mg/kg, p.o. 60 mg/Kg, read-out: AUC 0-8h
[11] = FVB, mouse, plasma, po, 60 mg/kg, p.o. 60 mg/Kg, read-out: AUC 0-last
[12] = FVB, mouse, plasma, po, 60 mg/kg, p.o. 60 mg/Kg, read-out: Half-life (converted)
[13] = FVB, mouse, plasma, po, p.o. 60 mg/Kg

Row | SMILES | stability in mice urine at 37 °C [1] | stability in urine stored frozen [1] | urinary excretion, range over oral and intravenous route [2] | Cmax [2, 4] | AUC(0-t) [2, 5] | AUC(0-t) [2, 6] | half-life [2, 7] | AUC(0-inf) [2, 8] | Tmax [2, 8] | clearance [2, 8] | Vd [2, 8] | bioavailability [2, 9] | AUC(0-t) [2, 10] | AUC(0-t) [2, 11] | half-life [2, 12] | AUC(0-inf) [2, 13] | Tmax [2, 13] | 24 h urinary excretion (% of dose) ([2]; i.v. 30 mg/Kg) | time up to which detectable in plasma ([2]; i.v. 30 mg/Kg) | 24 h urinary excretion (% of dose) ([2]; p.o. 60 mg/Kg) | other results
1 | COCCNC(=N)NCCC[C@H](N)c1noc(=O)[nH]1 [ZST152] | at least 24 h | one | 12.5%–22.2% and 12.5–22.2% | 24900 ng/mL | 9250 ng·h/mL | 9250 ng·h/mL | 72 min | 9260 ng·h/mL | 5 min | 54 mL/min/kg | 5.49 L/kg | 33% | 6170 ng·h/mL | 6170 ng·h/mL | 51.6 min | 6180 ng·h/mL | 15 min | 22.2 % of dose | 8 h | 12.5 % of dose | half-life ([2]; i.v. 30 mg/Kg, 30 mg/kg): 70.2 min; time up to which measurable in plasma ([2]; p.o. 60 mg/Kg): 8 h; F % (bioavailability) ([2]; p.o. 60 mg/Kg vs i.v. 30 mg/Kg, dose normalized): 33.3%; urinary excretion relative to that of ZST316 ([2]; regardless of the route of administration): four- to fivefold; suppression of vasculogenic mimicry [3]: suppress vasculogenic mimicry; penetration of the cell membrane of cancer cells and intracellular DDAH1 inhibition (cancer cells): able to successfully penetrate the cell membrane of cancer cells and inhibit DDAH1 intracellularly; degradation in the culture media (cancer cells): did not significantly degrade
2 | COCCNC(=N)NCCC[C@H](N)C(=O)NS(C)(=O)=O [ZST316] | at least 24 h | one | 2.3%–7.5% and 2.3–7.5% | 67400 ng/mL | 21400 ng·h/mL | 21500 ng·h/mL | 360 min | 21600 ng·h/mL | 5 min | 23.2 mL/min/kg | 12.2 L/kg | < 5% | 1940 ng·h/mL | 1940 ng·h/mL | 97.8 min | 2010 ng·h/mL | 30 min | 7.5 % of dose | 24 h | 2.3 % of dose | Cmax ([2]; FVB, mouse, plasma, po, 60 mg/kg, p.o. 60 mg/Kg, single dose): 1020 ng/mL; concentration at 8 h ([2]; FVB, mouse, plasma, po, p.o. 60 mg/Kg, 8 h post dose): 29 ng/mL; AUC after intravenous administration relative to that of ZST152 ([2]; i.v. 30 mg/Kg): approximately twice; time up to which measurable in plasma ([2]; p.o. 60 mg/Kg): 8 h; suppression of in vitro vasculogenic mimicry and migration ([3]; MDA-MD-231 cells, ref recent demonstration by our group): suppresses in vitro vasculogenic mimicry and migration; suppression of vasculogenic mimicry [3]: suppress vasculogenic mimicry; penetration of the cell membrane of cancer cells and intracellular DDAH1 inhibition (cancer cells): able to successfully penetrate the cell membrane of cancer cells and inhibit DDAH1 intracellularly; degradation in the culture media (cancer cells): did not significantly degrade
